According to US6191155A (priority 1997, dated 2001):

Tests used:
[1] = log P by HPLC (EEC Directive 79/831 Annex V.A8); assay type: physicochemical; details: gradient method, acetonitrile/0.1% of aqueous phosphoric acid
Experimental: *) The log P values were determined in accordance with EEC Directive 79/831
Annex V.A8 by HPLC (gradient method, acetonitrile/0.1% of aqueous

[2] = system: Erysiphe graminis f.sp. hordei; test: Erysiphe test (barley)/protective; assay type: in vivo, Erysiphe graminis f.sp. hordei (on barley); details: active compound concentration 250 (head: % by weight); protective; 7 days after inoculation; 100% = no infection
Experimental: Erysiphe Test (Barley)/Protective
(§1) Solvent: 10 parts by weight of N-methyl-pyrrolidone
(§2) Emulsifier: 0.6 parts by weight of alkylaryl polyglycol ether
(§3) To produce a suitable preparation of active compound, 1 part by weight of active compound is mixed with the stated amounts of solvent and emulsifier, and the concentrate is diluted with water to the desired concentration.
To test for protective activity, young plants are sprayed with the preparation of active compound at the stated application rate.
After the spray coating has dried on, the plants are dusted with spores of Erysiphe graminis f.sp. hordei.
The plants are placed in a greenhouse at a temperature of approximately 20° C. and a relative atmospheric humidity of approximately 80% to promote the development of mildew pustules.
Evaluation is carried out 7 days after the inoculation. 0% means an efficacy which corresponds to that of the control, while an efficacy of 100% means that no infection is observed.

[3] = system: Plutella xylostella; test: Plutella test (caterpillars of the diamond-back moth on cabbage leaves); assay type: in vivo, Plutella xylostella (on Brassica oleracea); details: 168 h, active compound concentration 0.1 % by weight, after 7 days, read-out: Kill in % after 7d
Experimental: Solvent: 7 parts by weight of dimethylformamide
Emulsifier: 1 part by weight of alkylaryl polyglycol ether
as §3
Cabbage leaves (Brassica oleracea) are treated by being dipped into the preparation of active compound of the desired concentration and are populated with caterpillars of the diamond-back moth (Plutella xylostella) while the leaves are still moist.
After 7 days, the kill is determined. An efficacy of 100% means that all caterpillars have been killed, while an efficacy of 0% means that none of the caterpillars have been killed.

[4] = system: Leptosphaeria nodorum; test: Leptosphaeria nodorum test (wheat)/protective; assay type: in vivo, Leptosphaeria nodorum (on wheat); details: application rate 250 g/ha; protective; evaluation 10 days after inoculation
Experimental: Leptosphaeria nodorum Test (Wheat)/Protective
as §1, §2, §3
To test for protective activity, young plants are sprayed with the preparation of active compound at the stated application rate. After the spray coating has dried on, the plants are sprayed with a spore suspension of Leptosphaeria nodorum. The plants remain in an incubation cabin at 20° C. and 100% relative atmospheric humidity for 48 hours.
The plants are placed in a greenhouse at a temperature or approximately 15° C. and a relative atmospheric humidity of 80%.
Evaluation is carried out 10 days after the inoculation. 0% means an efficacy which corresponds to that of the control, while an efficacy of 100% means that no infection is observed.

[5] = system: fungi; details: cited from earlier work

Row | SMILES | chromatographic logP [1] | further results
1 | CCN(CC)CCOC(=O)c1snc(Cl)c1Cl [Example 2] | 1.37 | –
2 | O=C(OCCOCCN1CCCC1)c1snc(Cl)c1Cl [Example 3] | 1.36 | Efficacy in % [2]: 100%; mortality at 0.1 % strength [3]: 100%
3 | O=C(OCCOc1cccc(C(F)(F)F)c1)c1snc(Cl)c1Cl [Example 4] | 4.71 | –
4 | O=C(OCCOCc1ccccc1)c1snc(Cl)c1Cl [Example 5] | 4.12 | –
5 | COC(=O)c1ccc(OCCOC(=O)c2snc(Cl)c2Cl)cc1 [Example 6] | 3.91 | –
6 | CCN(CCOCCOC(=O)c1snc(Cl)c1Cl)c1ccccc1 [Example 7] | 2.6 | –
7 | O=C(OCCOCC(F)(F)F)c1snc(Cl)c1Cl [Example 8] | 3.55 | –
8 | O=C(OCCOC(CF)CF)c1snc(Cl)c1Cl [Example 9] | 3.11 | –
9 | O=C(OCCOc1ccc(Cl)cc1)c1snc(Cl)c1Cl [Example 10] | 4.58 | –
10 | O=C(OCCn1nnc2ccccc21)c1snc(Cl)c1Cl [Example 11] | 2.81 | –
11 | O=C(OCc1cccnc1)c1snc(Cl)c1Cl [Example 12] | – | mortality at 0.1 % strength [3]: 100%
12 | O=C(OCCc1ccc(Cl)cc1)c1snc(Cl)c1Cl [Example 13] | – | Efficacy in % [4]: 81%
13 | CSC(=O)c1snc(Cl)c1Cl [Example 15] | 3.46 | –
14 | CC(C)CSC(=O)c1snc(Cl)c1Cl [Example 17] | 5.16 | –
15 | CCCSC(=O)c1snc(Cl)c1Cl [Example 18] | 4.66 | –
16 | Cc1ccc(C(C)OC(=O)c2snc(Cl)c2Cl)cc1 (centres unmarked) [Example 19] | 5.02 | –
17 | O=C(OCC(O)CO)c1snc(Cl)c1Cl (centres unmarked) [Example 20] | 1.49 | –
18 | CC(C)OC(=O)c1snc(Cl)c1Cl [isopropyl 3,4-dichloro-isothiazol-5-carboxylate] | – | activity in controlling fungi [5]: good
